# From patent US20260125379A1, “PRODRUG OF JAK KINASE INHIBITOR” (E-nitiate Biopharmaceuticals (Hangzhou) Co., Ltd, priority 2022, published 2026)
# Like-named read-outs stand apart in the source and are kept apart here.
# Key:
# JAK1 = JAK1 (Homo sapiens, UniProt P23458); assay: JAK1 kinase inhibition assay (ULight-JAK-1 substrate, Eu-labeled anti-phosphotyrosine antibody); type: biochemical; details: JAK1 10 nM, substrate 50 nM, ATP 40 μM, 2 hours at room temperature
# Method: (§1) Example A: Activity Detection of JAK Kinase Small Molecule Inhibitors
# (§2) Kinase reaction buffer was prepared with the following components: 50 mM HEPES, pH 7.5, 1 mM EGTA, 10 mM MgCl2, 2 mM DTT, 0.01% Tween20.
# (§3) Detection buffer was prepared by diluting 10× detection buffer to IX with deionized water in a ratio of 9:1.
# (§4) JAK kinase was diluted with kinase reaction buffer to 4× final concentration (JAK1: 40 nM, JAK2: 0.5 nM).
# (§5) ULight™-JAK-1 (Tyr1023) substrate was diluted with kinase reaction buffer to 200 nM (final concentration: 50 nM).
# (§6) ATP was diluted with kinase reaction buffer to 4× final concentration (JAK1: 160 μM, JAK2: 40 μM).
# (§7) Compound to be tested was dissolved with DMSO to obtain a 10 mM storage solution, which was diluted to desired concentrations by a 3-fold gradient; for each compound 10 concentration points were set, and the final concentration of the compound to be tested ranges from 10 μM to 0.5 nM.
# (§8) EDTA was dissolved with 1× detection buffer to 40 mM (EDTA final concentration: 10 mM).
# (§9) Eu-labeled detection antibody (anti-phosphotyrosine (PT66)) was diluted with 1× detection buffer to 8 nM (final antibody concentration: 2 nM).
# (§10) (1) To a 384-well plate, 2.5 μL 4× kinase solution and 2.5 μL 4× test compound solution with different concentrations that have been diluted were added successively, each concentration was set in duplicate, and an enzyme solution blank control and a negative control (DMSO group) were also set.
# (§11) (2) The 384-well plate was shaken to mix enzyme and compound well, and then centrifuged at 1000 rpm for 1 minute, and incubated at room temperature for 60 minutes.
# (§12) (3) 2.5 μL 4× substrate solution was added to the 384-well plate and centrifuged at 1000 rpm for 1 minute.
# (§13) (4) 2.5 μL 4× ATP solution was added to the 384-well plate and centrifuged at 1000 rpm for 1 minute, and then enzyme reaction was initiated.
# (§14) (5) For JAK1 the reaction was carried out at room temperature for 2 hours, and for JAK2 the reaction was carried out at room temperature for 1 hour.
# (6) For the JAK1 reaction, the final concentrations of components are as follows: JAK1: 10 nM, substrate: 50 nM, ATP: 40 μM; and the final concentration of the tested compounds ranges from 10μ M to 0.5 nM.
# (§15) (7) After the enzyme reaction was completed, 5 μL 4× enzyme reaction termination solution was added to each well of the 384-well plate, and then centrifuged at 1000 rpm for 1 minute and incubated at room temperature for 5 minutes.
# (§16) (8) 5 μL 4× detection antibody solution (the final concentration of detection antibody is 2 nM) was added to each well of the 384-well plate, and then centrifuged at 1000 rpm for 1 minute and incubated at room temperature for 1 hour.
# (§17) (9) At the antibody incubation was completed, signal value of each well was measured on a Envision plate reader.
# (§18) (1) The percentage inhibition rate corresponding to each concentration of the tested compound was calculated on the basis that the blank control of enzyme solution corresponds to 100% and the negative control (DMSO group) corresponds to 0%.
# (§19) (2) A nonlinear regression analysis of the logarithm of the concentration of the detected compound and the corresponding percentage inhibition rate was performed in GraphPad Prism software to obtain the half-inhibiting concentration (IC50) of the tested compound.
# JAK2 = JAK2 (Homo sapiens, UniProt O60674); assay: JAK2 kinase inhibition assay (ULight-JAK-1 substrate, Eu-labeled anti-phosphotyrosine antibody); type: biochemical; details: JAK2 0.125 nM, substrate 50 nM, ATP 10 μM, 1 hour at room temperature
# Method: as §1, §2, §3, §4, §5, §6, §7, §8, §9, §10, §11, §12, §13, §14
# For the JAK2 reaction, the final concentrations of component are as follows: JAK2: 0.125 nM, substrate: 50 nM, ATP: 10 μM; and the final concentration of the tested compound ranges from 10 μM to 0.5 nM.
# as §15, §16, §17, §18, §19
# [1] = Fecal excretion (cumulative recovery) in rats after single gavage; type: in vivo; details: feces, SD rats
# Method: (§20) Compounds A1, A2, A3, B3, B6 and B3 were administered once to SD rats by gavage. The concentrations of medicaments and metabolites thereof in plasma were collected and measured at different time points, and the pharmacokinetic parameters of each compound were calculated to study the pharmacokinetic characteristics of the compounds in plasma of SD rats. Fecal samples at 8 and 24 hours were collected simultaneously, and the concentrations of prodrugs and degraded products were detected to investigate the excretion recovery rate.
# (§21) Rats were grouped in groups of 3, and all SD rats were fasted overnight (12 hours or more) the day before the experiment. On the day of the experiment, after weighing the body weight, the rats were administrated once with compound A1, A2, A3, B3, B6, and B3 by gavage respectively. SD rats were able to resume eating 4 hours after administration and were able to drink freely during the experiment. 0.20 mL of blood was collected from the jugular vein before administration and at 0.5, 1, 2, 4, 8, 12, and 24 hours after administration, respectively, and was placed in EDTA-K2 anticoagulation tube. All whole blood samples were centrifuged at 1500 g to 1600 g for 10 minutes within half an hour after collection to separate plasma, which was stored in a refrigerator at a temperature of between −90° C. and −60° C. for sample analysis. All the feces from the metabolic cage chassis were collected at 24 h after administration and weighed accurately. The required volume of homogenate liquid (aqueous solution containing 20% methanol) was added at a weight/volume ratio of 1:10, and the resultant was homogenized and analyzed.
# [2] = Plasma pharmacokinetics in rats after single gavage; type: in vivo; details: SD rats; for presence of the prodrug in plasma (in words): after gavage of the prodrug itself; for Cmax (ng · mL^−1) / Cmax / Tmax / AUC0-t: plasma
# Method: as §20, §21
# [3] = administration group Compound A2 50 mg/kg by gavage
# [4] = administration group Compound A1 50 mg/kg by gavage
# [5] = administration group Compound A3 40 mg/kg by gavage
# [6] = administration group Compound B3 33 mg/kg (equimolar with B6) by gavage
# [7] = administration group Compound B6 50 mg/kg by gavage
# [8] = rat, po, administration group Compound B6 50 mg/kg by gavage, read-out: Cmax
# [9] = rat, po, administration group Compound B6 50 mg/kg by gavage, read-out: Tmax
# JAK1, sequence (P23458 whole entry, species assumed): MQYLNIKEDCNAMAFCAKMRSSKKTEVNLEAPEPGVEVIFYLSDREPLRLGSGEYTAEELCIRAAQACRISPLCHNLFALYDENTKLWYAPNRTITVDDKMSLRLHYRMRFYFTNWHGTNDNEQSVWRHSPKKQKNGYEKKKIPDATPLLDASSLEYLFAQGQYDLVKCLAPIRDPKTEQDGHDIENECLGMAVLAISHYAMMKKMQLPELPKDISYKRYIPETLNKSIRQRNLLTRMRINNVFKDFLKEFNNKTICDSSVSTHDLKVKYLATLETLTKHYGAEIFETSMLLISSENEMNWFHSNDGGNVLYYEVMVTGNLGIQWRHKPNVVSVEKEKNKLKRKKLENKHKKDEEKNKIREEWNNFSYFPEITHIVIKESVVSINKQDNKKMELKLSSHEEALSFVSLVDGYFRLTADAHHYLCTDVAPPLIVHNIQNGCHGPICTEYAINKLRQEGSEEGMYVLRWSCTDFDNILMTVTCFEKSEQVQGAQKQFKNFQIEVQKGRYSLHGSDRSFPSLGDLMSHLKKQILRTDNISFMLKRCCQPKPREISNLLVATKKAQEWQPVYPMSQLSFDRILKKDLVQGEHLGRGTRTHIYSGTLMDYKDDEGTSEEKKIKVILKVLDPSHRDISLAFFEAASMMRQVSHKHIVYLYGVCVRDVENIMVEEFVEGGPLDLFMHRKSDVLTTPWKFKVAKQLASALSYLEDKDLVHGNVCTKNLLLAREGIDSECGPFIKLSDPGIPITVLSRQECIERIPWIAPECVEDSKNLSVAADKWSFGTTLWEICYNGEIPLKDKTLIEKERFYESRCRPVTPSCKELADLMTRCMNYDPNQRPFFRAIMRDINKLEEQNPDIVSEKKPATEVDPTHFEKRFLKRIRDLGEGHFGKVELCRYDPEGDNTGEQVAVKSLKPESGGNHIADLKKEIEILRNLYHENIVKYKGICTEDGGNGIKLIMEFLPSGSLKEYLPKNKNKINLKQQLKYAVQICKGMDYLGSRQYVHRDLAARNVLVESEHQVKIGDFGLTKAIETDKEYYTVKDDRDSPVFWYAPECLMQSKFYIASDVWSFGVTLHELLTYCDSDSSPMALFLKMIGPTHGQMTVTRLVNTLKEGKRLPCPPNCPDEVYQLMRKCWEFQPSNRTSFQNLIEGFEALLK
# JAK2, sequence (O60674 whole entry, species assumed): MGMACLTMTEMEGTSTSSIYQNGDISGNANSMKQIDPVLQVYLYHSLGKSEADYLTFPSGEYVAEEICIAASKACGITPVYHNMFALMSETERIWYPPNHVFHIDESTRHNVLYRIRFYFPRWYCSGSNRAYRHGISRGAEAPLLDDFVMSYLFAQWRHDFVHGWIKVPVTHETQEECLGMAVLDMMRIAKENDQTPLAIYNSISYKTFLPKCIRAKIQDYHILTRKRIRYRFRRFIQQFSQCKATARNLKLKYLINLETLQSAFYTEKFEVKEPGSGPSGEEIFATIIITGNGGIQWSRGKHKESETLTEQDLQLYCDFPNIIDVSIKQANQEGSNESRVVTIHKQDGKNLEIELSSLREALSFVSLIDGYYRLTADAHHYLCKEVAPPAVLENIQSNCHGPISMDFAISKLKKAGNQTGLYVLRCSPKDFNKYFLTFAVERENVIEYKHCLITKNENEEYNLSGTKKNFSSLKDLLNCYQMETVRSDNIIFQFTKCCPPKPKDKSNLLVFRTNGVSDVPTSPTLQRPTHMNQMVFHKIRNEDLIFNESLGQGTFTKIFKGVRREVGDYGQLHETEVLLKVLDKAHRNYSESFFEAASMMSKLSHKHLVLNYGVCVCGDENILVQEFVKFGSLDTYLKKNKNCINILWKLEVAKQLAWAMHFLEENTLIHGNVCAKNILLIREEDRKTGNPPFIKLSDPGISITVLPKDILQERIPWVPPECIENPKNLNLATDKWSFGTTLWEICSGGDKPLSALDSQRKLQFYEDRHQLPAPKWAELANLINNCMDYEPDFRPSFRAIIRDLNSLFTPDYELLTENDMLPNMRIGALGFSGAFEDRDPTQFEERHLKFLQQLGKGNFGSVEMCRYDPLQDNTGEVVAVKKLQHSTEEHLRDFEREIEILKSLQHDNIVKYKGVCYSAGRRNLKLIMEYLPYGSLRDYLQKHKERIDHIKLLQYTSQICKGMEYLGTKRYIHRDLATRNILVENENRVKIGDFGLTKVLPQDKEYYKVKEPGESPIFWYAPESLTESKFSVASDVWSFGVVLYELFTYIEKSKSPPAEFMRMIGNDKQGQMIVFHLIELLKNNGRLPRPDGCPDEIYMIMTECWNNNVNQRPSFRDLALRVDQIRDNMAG
smiles,measurement,setting,value
"C[C@@H](OC(=O)OCc1ccc(/N=N/c2ccc(O)c(C(=O)O)c2)cc1)c1nc2cnc3[nH]ccc3c2n1N1CCC(CC#N)CC1 [Compound A2, (R,E)-5-((4-((((1-(1-(4-cyanomethylpiperidin-1-yl)-1,6-dihydroimidazo[4,5-d]pyrrolo[2,3-b]pyridin-2-yl)ethoxy)carbonyl)oxy)methyl)phenyl)diazenyl)-2-hydroxybenzoic acid]",IC50,JAK1,5.94 nM
same,IC50,JAK2,27 nM
same,Cumulative recovery rate at 24 h (%),[1]; [3],7.2%
same,presence of the prodrug in plasma (in words),[2],absent or rarely present in plasma
same,Cmax (ng · mL^−1),[2]; [3],BLOQ
"C[C@@H](O)c1nc2cnc3[nH]ccc3c2n1N1CCC(CC#N)CC1 [Compound A13, (R)-2-(1-(2-(1-(hydroxyethyl))imidazo[4,5-d]pyrrolo[2,3-b]pyridin-1(6H)-yl)piperidin-4-yl)acetonitrile]",Cumulative recovery rate at 24 h (%),[1]; [4],11.6%
same,Cumulative recovery rate at 24 h (%),[1]; [3],24.8%
same,Cumulative recovery rate at 24 h (%),[1]; [5],34.3%
same,Cmax,[2]; [4],9.1 ng/mL
same,Tmax,[2]; [4],12 h
same,AUC0-t,[2]; [3],972 ng·h/g
same,Cmax,[2]; [3],80.6 ng/mL
same,Tmax,[2]; [3],4 h
same,AUC0-t,[2]; [5],836 ng·h/g
same,Cmax,[2]; [5],69.9 ng/mL
same,Tmax,[2]; [5],12 h
"N#CC[C@H]1CC[C@H](n2c(N)nc3cnc4[nH]ccc4c32)CC1 [Compound B3, 2-((1R,4R)-4-(2-aminoimidazo[4,5-d]pyrrolo[2,3-b]pyridin-1(6H)-ethyl)cyclohexyl)acetonitrile]",IC50,JAK1,0.04 nM
same,IC50,JAK2,0.37 nM
same,Cumulative recovery rate at 24 h (%),[1]; [6],71.2%
same,Cumulative recovery rate at 24 h (%),[1]; [7],82.1%
same,AUC0-t,[2]; [6],324 ng·h/g
same,AUC0-t,[2]; [7],69.1 ng·h/g
same,Cmax,"[2]; rat, po, administration group Compound B3 33 mg/kg (equimolar with B6) by gavage, read-out: Cmax",126 ng/mL
same,Tmax,"[2]; rat, po, administration group Compound B3 33 mg/kg (equimolar with B6) by gavage, read-out: Tmax",1.2 h
same,Cmax,[2]; [8],4.8 ng/mL
same,Tmax,[2]; [9],12 h
"C[C@@H](OC(=O)CN(C)C)c1nc2cnc3[nH]ccc3c2n1N1CCC(CC#N)CC1 [Compound A7, (R)-1-(1-(4-(cyanomethyl)piperidin-1-yl)-1,6-dihydroimidazo[4,5-d]pyrrolo[2,3-b]pyridin-2-yl)ethyl dimethylglycinate]",IC50,JAK1,3.85 nM
same,IC50,JAK2,57.8 nM
"C[C@@H](OC(=O)CCCCO[N+](=O)[O-])c1nc2cnc3[nH]ccc3c2n1N1CCC(CC#N)CC1 [Compound A6, (R)-1-(1-(4-(cyanomethyl)piperidin-1-yl)-1,6-dihydroimidazo[4,5-d]pyrrolo[2,3-b]pyridin-2-yl)ethyl 5-(nitrooxy)valerate]",IC50,JAK1,31.3 nM
same,IC50,JAK2,40.3 nM
"N#CC[C@H]1CC[C@H](n2c(N)nc3cnc4ccoc4c32)CC1 [Compound B5, 2-((1R,4R)-4-(2-amino-1H-furo[3,2-b]imidazo[4,5-d]pyridin-1-yl)cyclohexyl)acetonitrile]",IC50,JAK1,1.33 nM
same,IC50,JAK2,7.15 nM
"CC(=O)O[C@H](C)c1nc2cnc3[nH]ccc3c2n1N1CCC(CC#N)CC1 [Compound A5, (R)-1-(1-(4-(cyanomethyl)piperidin-1-yl)-1,6-dihydroimidazo[4,5-d]pyrrolo[2,3-b]pyridin-2-yl)ethyl acetate]",IC50,JAK1,1.83 nM
same,IC50,JAK2,4.04 nM
"N#CCC1CCN(n2c(/N=N/c3ccc(O)c(C(=O)O)c3)nc3cnc4[nH]ccc4c32)CC1 [Compound B7, (E)-5-((1-(4-cyanomethylpiperidin-1-yl)-1,6-dihydroimidazo[4,5-d]pyrrolo[2,3-b]pyridin-2-yl)diazenyl)-2-hydroxybenzoic acid]",IC50,JAK1,1 nM
same,IC50,JAK2,0.27 nM
"N#CC[C@H]1CC[C@H](n2c(/N=N/c3ccc(O)c(C(=O)O)c3)nc3cnc4[nH]ccc4c32)CC1 [Compound B6, 5-((E)-(1-((1R,4R)-4-(cyanomethyl)cyclohexyl)-1,6-dihydroimidazo[4,5-d]pyrrolo[2,3-b]pyridin-2-yl)diazenyl)-2-hydroxybenzoic acid]",IC50,JAK1,0.45 nM
same,IC50,JAK2,0.81 nM
same,Cumulative recovery rate at 24 h (%),[1]; [7],5.1%
same,blood system absorption (AUC0-t) of the active metabolite B3 after prodrug B6 compared with direct oral equimolar B3,[2]; B6 50 mg/kg vs B3 33 mg/kg by gavage,significant reduction
same,presence of the prodrug in plasma (in words),[2],absent or rarely present in plasma
same,Cmax,[2]; [8],0.7 ng/mL
same,Tmax,[2]; [9],4 h
"CC(C)[C@@H](N)C(=O)O[C@H](C)c1nc2cnc3[nH]ccc3c2n1N1CCC(CC#N)CC1 [Compound A8, (R)-1-(1-(4-(cyanomethyl)piperidin-1-yl)-1,6-dihydroimidazo[4,5-d]pyrrolo[2,3-b]pyridin-2-yl)ethyl D-valinate]",IC50,JAK1,5.86 nM
same,IC50,JAK2,72 nM
"C[C@@H](OC(=O)CCc1ccccc1/N=N/c1ccc(O)c(C(=O)O)c1)c1nc2cnc3[nH]ccc3c2n1N1CCC(CC#N)CC1 [Compound A1, (R,E)-5-((2-(3-(1-(1-(4-(cyanomethyl)piperidin-1-yl)-1,6-dihydroimidazo[4,5-d]pyrrolo[2,3-b]pyridin-2-yl)ethoxy)-3-oxopropyl)phenyl)diazenyl)-2-hydroxybenzoic acid]",IC50,JAK1,133 nM
same,IC50,JAK2,536 nM
same,Cumulative recovery rate at 24 h (%),[1]; [4],83%
same,presence of the prodrug in plasma (in words),[2],absent or rarely present in plasma
same,Cmax (ng · mL^−1),[2]; [4],BLOQ
"N#CCS(=O)(=O)NCC1CCN(n2c(N)nc3cnc4[nH]ccc4c32)CC1 [Compound B2, N-((1-(2-aminoimidazo[4,5-d]pyrrolo[2,3-b]pyridin-1(6H)-yl)-piperidin-4-yl)methyl)-1-cyano methanesulfonamide]",IC50,JAK1,0.045 nM
same,IC50,JAK2,0.1 nM
"CSCC1(C)CCN(n2c(CCO[N+](=O)[O-])nc3cnc4[nH]ccc4c32)CC1 [Compound A12, 2-(1-(4-Methyl-4-((methylthio)methyl)piperidin-1-yl)-1,6-dihydroimidazo[4,5-d]pyrrolo[2,3-b]pyridin-2-yl)ethyl nitrate]",IC50,JAK1,38.9 nM
same,IC50,JAK2,37.9 nM
